Results reported in patent publication US8058447B2, “4-Chromenonyl-1,4-dihydropyridinecarbonitriles and the use thereof” (Bayer Pharma Aktiengesellschaft, priority 2005, dated 2011).

What follows are compounds tested against T1, human mineralocorticoid receptor (MR) (Homo sapiens, UniProt P08235) (assay: Cellular in vitro assay to determine the inhibitory MR activity (GAL4-MR chimera luciferase reporter in CHO K1 cells)). Settings: antagonism of aldosterone-stimulated luciferase in CHO K1 cells expressing GAL4-MR chimera.
T1 construct: expressed in transfected cells
T1 sequence (P08235 734-984 limits assumed): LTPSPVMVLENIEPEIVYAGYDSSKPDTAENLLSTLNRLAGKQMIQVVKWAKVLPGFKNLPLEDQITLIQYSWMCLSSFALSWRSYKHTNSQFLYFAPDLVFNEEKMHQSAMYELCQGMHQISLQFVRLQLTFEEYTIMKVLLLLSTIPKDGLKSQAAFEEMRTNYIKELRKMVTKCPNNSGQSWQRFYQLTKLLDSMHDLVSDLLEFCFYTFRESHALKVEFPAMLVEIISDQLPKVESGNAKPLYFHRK
Assay type: cell-based
Source text: 1. Cellular In Vitro Assay to Determine the Inhibitory MR Activity and MR Selectivity Compared with Other Steroid Hormone Receptors
Antagonists of the human mineralocorticoid receptor (MR) are identified, and the activity of the compounds described herein is quantified with the aid of a recombinant cell line. The cell is originally derived from a hamster ovary epithelial cell (Chinese Hamster Ovary, CHO K1, ATCC: American Type Culture Collection, VA 20108, USA).
An established chimera system in which the ligand-binding domains of human steroid hormone receptors are fused to the DNA binding domain of the yeast transcription factor GAL4 is used in this CHO K1 cell line. The GAL4-steroid hormone receptor chimeras produced in this way are cotransfected and stably expressed with a reporter construct in the CHO cells.
To generate the GAL4-steroid hormone receptor chimeras, the GAL4 DNA binding domain (amino acids 1-147) from the vector pFC2-dbd (from Stratagene) is cloned with the PCR-amplified ligand-binding domains of the mineralocorticoid receptor (MR, amino acids 734-985), of the glucocorticoid receptor (GR, amino acids 443-777), of the progesterone receptor (PR, amino acids 680-933) and of the androgen receptor (AR, amino acids 667-919) into the vector pIRES2 (from Clontech). The reporter construct, which comprises five copies of the GAL4 binding site upstream of a thymidine kinase promoter, leads to expression of firefly luciferase (Photinus pyralis) after activation and binding of the GAL4-steroid hormone receptor chimeras by the respective specific agonists aldosterone (MR), dexamethasone (GR), progesterone (PR) and dihydrotestosterone (AR).
The MR, GR, PR and AR cells are plated out in medium (Optimem, 2.5% FCS, 2 mM glutamine, 10 mM HEPES) in 96- (or 384- or 1536-) well microtiter plates on the day before the assay and are kept in a cell incubator (96% humidity, 5% v/v CO2, 37° C.). On the day of the assay, the substances to be tested are taken up in the abovementioned medium and added to the cells. About 10 to 30 minutes after addition of the test substances, the respective specific agonists of the steroid hormone receptors are added. After a further incubation time of 5 to 6 hours, the luciferase activity is measured with the aid of a video camera. The measured relative light units as a function of the substance concentration result in a sigmoidal stimulation curve. The IC50 values are calculated with the aid of the GraphPad PRISM computer program (Version 3.02).
With `CC1=C(C#N)C(c2ccc(F)c3c(=O)cc(C)oc23)C(C(=O)CCC(C)C)=C(C)N1` (centres unmarked) [Example 14, 4-(5-Fluoro-2-methyl-4-oxo-4H-chromen-8-yl)-2,6-dimethyl-5-(4-methylpentanoyl)-1,4-dihydropyridine-3-carbonitrile] the IC50 was 0.195 µM. In the case of `CC1=C(C#N)C(c2cccc3c(=O)cc(C)oc23)C(C(=O)CC2CCCC2)=C(C)N1` (centres unmarked) [Example 41, 5-(Cyclopentylacetyl)-2,6-dimethyl-4-(2-methyl-4-oxo-4H-chromen-8-yl)-1,4-dihydropyridine-3-carbonitrile], the IC50 is reported as 0.29 µM. `CC1=C(C#N)C(c2ccc([N+](=O)[O-])c3c(=O)cc(C)oc23)C(C(=O)OC(C)C)=C(C)N1` (centres unmarked) [Example 32, Isopropyl 5-cyano-2,6-dimethyl-4-(2-methyl-5-nitro-4-oxo-4H-chromen-8-yl)-1,4-dihydropyridine-3-carboxylate] gave an IC50 of 0.105 µM. `CC1=C(C#N)C(c2ccc(F)c3c(=O)cc(C)oc23)C(C(=O)CCC2CCC2)=C(C)N1` (centres unmarked) [Example 15, 5-(3-Cyclobutylpropanoyl)-4-(5-fluoro-2-methyl-4-oxo-4H-chromen-8-yl)-2,6-dimethyl-1,4-dihydropyridine-3-carbonitrile] was tested, and the IC50 was 0.093 µM. `CC1=C(C#N)C(c2ccc(F)c3c(=O)cc(C)oc23)C(C(=O)CC2CCC2)=C(C)N1` (centres unmarked) [Example 13, 5-(Cyclobutylacetyl)-4-(5-fluoro-2-methyl-4-oxo-4H-chromen-8-yl)-2,6-dimethyl-1,4-dihydropyridine-3-carbonitrile] gave an IC50 of 0.127 µM. In the case of `CCOC(=O)C1=C(C)NC(C(F)(F)F)=C(C#N)[C@H]1c1cccc2c(=O)cc(C)oc12` (single isomer, unassigned) [Example 30], the IC50 is reported as 0.089 µM. For `CC1=C(C#N)[C@@H](c2cc(F)c(F)c3c(=O)cc(C)oc23)C(C(=O)OC2CCC2)=C(C)N1` (single isomer, unassigned) [Example 18], the IC50 was 0.022 µM. With `CCOC(=O)C1=C(C)NC(C(F)(F)F)=C(C#N)C1c1cccc2c(=O)cc(C)oc12` (racemic) [Example 29, Ethyl 5-cyano-2-methyl-4-(2-methyl-4-oxo-4H-chromen-8-yl)-6-(trifluoromethyl)-1,4-dihydropyridine-3-carboxylate] the IC50 was 0.193 µM.
